Test results taken from PMC4407906, “Structure-Guided Engineering of Molinate Hydrolase for the Degradation of Thiocarbamate Pesticides” (PLoS ONE, 2015).

Experiments:
[1] = molecular target: T1, molinate hydrolase (Gulosibacter molinativorax, UniProt G2XLB0); test: UV spectrophotometric molinate depletion at […] nm, […] 2-mercaptoethanol; assay type: biochemical
T1 construct: gene molA; recombinant protein with a 32 amino acid purification tag

[2] = molecular target: T1, molinate hydrolase; test: UV spectrophotometric molinate depletion at […] nm, […] L-cysteine; assay type: biochemical
[3] = molecular target: T1, molinate hydrolase; test: HPLC assay of molinate depletion with purified recombinant enzyme; competitive inhibition fit; assay type: biochemical
[4] = molecular target: the molecule itself; test: crystal structure; recombinant molinate hydrolase co-crystallised with ZnCl2 (4 or 8 mM), vapour diffusion at 20°C, sodium citrate pH 5.6-6.4, 2-propanol, PEG 4000, glycerol; monoclinic C2 with 8 monomers and orthorhombic with 4 monomers in the asymmetric unit

T1 sequence (G2XLB0 entry or part of it): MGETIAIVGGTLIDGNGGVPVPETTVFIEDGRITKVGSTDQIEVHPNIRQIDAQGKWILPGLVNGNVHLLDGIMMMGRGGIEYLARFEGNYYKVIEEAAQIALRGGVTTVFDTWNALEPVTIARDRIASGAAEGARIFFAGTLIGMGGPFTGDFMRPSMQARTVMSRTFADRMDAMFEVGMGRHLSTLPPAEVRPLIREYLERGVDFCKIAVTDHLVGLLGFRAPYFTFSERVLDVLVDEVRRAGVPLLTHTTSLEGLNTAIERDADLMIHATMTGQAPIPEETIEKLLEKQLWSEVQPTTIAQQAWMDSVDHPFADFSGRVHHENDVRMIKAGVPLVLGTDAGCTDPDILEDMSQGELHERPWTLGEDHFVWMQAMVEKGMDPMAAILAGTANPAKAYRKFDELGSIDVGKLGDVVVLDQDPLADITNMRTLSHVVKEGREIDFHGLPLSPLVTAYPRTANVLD

OCCS [2-mercaptoethanol]
UV spectrophotometric molinate depletion at 220 nm, 3 mM 2-mercaptoethanol [1]: other thiolated compounds, such as β-mercaptoethanol, also inhibited molinate hydrolase

N[C@@H](CS)C(=O)O [L-cysteine]
UV spectrophotometric molinate depletion at 220 nm, 1.5 mM L-cysteine [2]: cysteine also inhibits the enzyme activity, while serine and methionine do not

CCS [ethanethiol]
Ki [3]: 300 µM

B1: recombinant molinate hydrolase (enzyme, Gulosibacter molinativorax ON4T)
chain: GETIAIVGGTLIDGNGGVPVPETTVFIEDGRITKVGSTDQIEVHPNIRQIDAQGKWILPGLVNGNVHLLDGIMMMGRGGIEYLARFEGNYYKVIEEAAQIALRGGVTTVFDTWNALEPVTIARDRIASGAAEGARIFFAGTLIGMGGPFTGDFMRPSMQARTVMSRTFADRMDAMFEVGMGRHLSTLPPAEVRPLIREYLERGVDFCKIAVTDHLVGLLGFRAPYFTFSERVLDVLVDEVRRAGVPLLTHTTSLEGLNTAIERDADLMIHATMTGQAPIPEETIEKLLEKQLWSEVQPTTIAQQAWMDSVDHPFADFSGRVHHENDVRMIKAGVPLVLGTDAGCTDPDILEDMSQGELHERPWTLGEDHFVWMQAMVEKGMDPMAAILAGTANPAKAYRKFDELGSIDVGKLGDVVVLDQDPLADITNMRTLSHVVKEGREIDFHGLPLSPLVTAYPRTANVLD
notes: molinate hydrolase (MolA) from Gulosibacter molinativorax ON4T; 1984 residues expected for 4 monomers (496 each, tag included); One Zn2+ per monomer (occupancy set to 0.4) in the deposited structure; A SeMet derivative (from E. coli B834 (DE3), metal-depleted) was also solved, with the same overall structure; also called MolA; source: E. coli JM109 or B834 (DE3), vector pASKmolA, purified …
stoichiometry N [4]: 4
